Source: patent US20020019527A1 (priority 2000, published 2002)
Counter-ions that a name gives are not always drawn. Like-named read-outs stand apart in the source and are kept apart here.

Target: T1, Farnesyltransferase (FTase) (Bos taurus, UniProt P29702+P49355)
T1 construct: precipitation from a beef brain homogenate; from tissue; host or cells: bovine brain
Experiment: Farnesyltransferase inhibition (scintillation proximity assay, [3H]-FPP / biotin-K-ras peptide)
Format: biochemical, bovine
Method: Farnesyltransferase (FTase) or geranylgeranyltransferase I (GGTase I) fractions were isolated from bovine brains and purified by a series of methods which separate FTase from GGTase I and GGTase I from GGTase II. The methods involved a partial purification of all three enzymes by precipitation from a beef brain homogenate with 30% to 50% saturated […] followed by chromatography on DEAE Sepharose. […] The catalytic purity of each enzyme was assayed separately with substrate acceptor proteins specific for that enzyme. After quickly freezing in liquid nitrogen, the various prenyl transferases were stored at −80° C.
The quenched reactions stood for 1 hour before analysis in a Packard TopCount scintillation counter. Purified compounds were dissolved in 100% ethanol and diluted 10-fold into the assay.

[1] = compound at 10^−6 M, bovine FTase, 37° C., 30 minutes

T1 sequence (P49355 whole entry, one chain of several): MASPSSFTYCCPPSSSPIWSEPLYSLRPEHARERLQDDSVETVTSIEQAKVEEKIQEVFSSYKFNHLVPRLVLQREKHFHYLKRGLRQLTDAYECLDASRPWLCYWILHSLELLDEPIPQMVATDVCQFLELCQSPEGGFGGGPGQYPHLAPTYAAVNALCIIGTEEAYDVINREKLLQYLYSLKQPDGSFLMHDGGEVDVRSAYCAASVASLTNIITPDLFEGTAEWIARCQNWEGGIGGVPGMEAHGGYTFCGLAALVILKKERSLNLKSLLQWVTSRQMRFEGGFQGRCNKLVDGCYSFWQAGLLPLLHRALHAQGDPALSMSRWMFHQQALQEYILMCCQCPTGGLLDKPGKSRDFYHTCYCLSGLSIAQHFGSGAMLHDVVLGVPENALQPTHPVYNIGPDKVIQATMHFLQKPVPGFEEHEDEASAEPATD

Structure (SMILES)	inhibition at 1 µM [1] [%]	further results
Cc1ccccc1-c1cc(C(OCc2ccccc2F)c2cncn2C)ccc1C#N (stereo not shown) [Example 138, 5-(((2-fluorobenzyl)oxy)(1-methyl-1H-imidazol-5-yl)methyl)-2′-methyl(1,1′-biphenyl)-2-carbonitrile hydrochloride]	92	–
Cc1ccccc1-c1cc(N(Cc2ccccc2)Cc2cnc[nH]2)ccc1C#N [Example 270, 5-(benzyl(1H-imidazol-5-ylmethyl)amino)-2′-methyl(1,1′-biphenyl)-2-carbonitrile]	100	–
Cn1cncc1C(OCc1ccccc1)c1ccc(C#N)c(-c2cccc(-c3ccccc3)c2)c1 (stereo not shown) [Example 6, 5-((benzyloxy)(1-methyl-1H-imidazol-5-yl)methyl)-3′-(phenyl)(1,1′-biphenyl)-2-carbonitrile hydrochloride]	61	–
Cn1cncc1C(OCc1ccc(C#N)cc1)c1ccc(C#N)c(-c2ccccc2C=O)c1 (stereo not shown) [Example 200, 5-(((4-cyanobenzyl)oxy)(1-methyl-1H-imidazol-5-yl)methyl)-2′-formyl(1,1′-biphenyl)-2-carbonitrile hydrochloride]	99	–
Cc1cc(C)cc(COC(c2ccc(C#N)c(-c3ccccc3C)c2)c2cncn2C)c1 (stereo not shown) [Example 140, 5-(((3,5-dimethylbenzyl)oxy)(1-methyl-1H-imidazol-5-yl)methyl)-2′-methyl(1,1′-biphenyl)-2-carbonitrile hydrochloride]	94	–
Cn1cncc1CN(Cc1ccc(C#N)c(-c2cccc3ccccc23)c1)C(=O)c1ccc(C#N)cc1 [Example 196, 4-cyano-N-(4-cyano-3-(1-naphthyl)benzyl)-N-((1-methyl-1H-imidazol-5-yl)methyl)benzamide]	90	–
Cn1cncc1CN(Cc1ccc(C#N)c(-c2cccc3ccccc23)c1)C(=O)c1ccc(Cl)c(Cl)c1 [Example 197, 3,4-dichloro-N-(4-cyano-3-(1-naphthyl)benzyl)-N-((1-methyl-1H-imidazol-5-yl)methyl)benzamide]	93	–
Cc1ccccc1-c1cc(C(OCc2c(Cl)cccc2Cl)c2cncn2C)ccc1C#N (stereo not shown) [Example 124, 5-(((2,6-dichlorobenzyl)oxy)(1-methyl-1H-imidazol-5-yl)methyl)-2′-methyl(1,1′-biphenyl)-2-carbonitrile hydrochloride]	90	–
CCOCn1cncc1C(OCc1ccccc1)c1ccc(C#N)c(-c2cccc3ccccc23)c1 (stereo not shown) [Example 105, 4-((benzyloxy)(1-(ethoxymethyl)-1H-imidazol-5-yl)methyl)-2-(1-naphthyl)benzonitrile hydrochloride]	82	–
COc1ccccc1-c1nc(COC(c2ccc(C#N)c(-c3ccccc3C)c2)c2cncn2C)no1 (stereo not shown) [Example 163, 5-(((5-(2-methoxyphenyl)-1,2,4-oxadiazol-3-yl)methoxy)(1-methyl-1H-imidazol-5-yl)methyl)-2′-methyl(1,1-biphenyl)-2-carbonitrile hydrochloride]	84	–
COC(=O)c1ccc(CNC(c2ccc(C#N)c(-c3cccc4ccccc34)c2)c2cncn2C)cc1 (stereo not shown) [Example 38, methyl 4-((((4-cyano-3-(1-naphthyl)phenyl)(1-methyl-1H-imidazol-5-yl)methyl)amino)methyl)benzoate]	100	–
Cc1ccccc1-c1cc(CN(CCC2CCCCC2)Cc2cncn2C)ccc1C#N [Example 82, 5-(((2-cyclohexylethyl)((1-methyl-1H-imidazol-5-yl)methyl)amino)methyl)-2′-methyl(1,1′-biphenyl)-2-carbonitrile hydrochloride]	87	–
Cc1ccccc1-c1cc(C(OCc2cccc(C(F)(F)F)c2)c2cncn2C)ccc1C#N.Cl (stereo not shown) [Example 123]	–	% Inhibition at 10^−6M: 97%
Cc1ccccc1-c1cc(C(OCc2ccc(C(F)(F)F)cc2)c2cncn2C)ccc1C#N.Cl (stereo not shown) [Example 139]	–	% Inhibition at 10^−6M: 97%
Cc1ccccc1-c1cc(CNC(c2ccc(C#N)c(-c3ccccc3C)c2)c2cncn2C)ccc1C#N (stereo not shown) [Example 26]	–	% Inhibition at 10^−6M [1]: 100%
Cc1ccccc1-c1cc(N(Cc2ccc(C#N)cc2)Cc2cncn2C)ccc1C#N [Example 229, 5-((4-cyanobenzyl)((1-methyl-1H-imidazol-5-yl)methyl)amino)-2′-methyl(1,1′-biphenyl)-2-carbonitrile]	100	–
Cn1cncc1CN(Cc1ccc(C#N)cc1)Cc1ccc(C#N)c(-c2cccc3ccccc23)c1 [Example 34, 4-(((4-cyanobenzyl)((1-methyl-1H-imidazol-5-yl)methyl)amino)methyl)-2-(1-naphthyl)benzonitrile]	100	–

Structure (SMILES)	inhibition at 1 µM [1] [%]	further results
Cn1cncc1CN(Cc1ccc(OC(F)(F)F)cc1)Cc1ccc(C#N)c(-c2cccc3ccccc23)c1 [Example 41, 4-((((1-methyl-1H-imidazol-5-yl)methyl)(4-(trifluoromethoxy)benzyl)amino)methyl)-2-(1-naphthyl)benzonitrile dihydrochloride]	100	–
Cn1cncc1C(OCc1ccc(C#N)cc1)c1ccc(C#N)c(-c2cccc(Cl)c2Cl)c1 (stereo not shown) [Example 279, 2′,3′-dichloro-5-(((4-cyanobenzyl)oxy)(1-methyl-1H-imidazol-5-yl)methyl)(1,1′-biphenyl)-2-carbonitrile hydrochloride]	99	–
Cc1ccccc1-c1cc(C(OCc2c(F)cccc2F)c2cncn2C)ccc1C#N (stereo not shown) [Example 186, 5-(((2,6-difluorobenzyl)oxy)(1-methyl-1H-imidazol-5-yl)methyl)-2′-methyl(1,1′-biphenyl)-2-carbonitrile hydrochloride]	85	–
Cn1cncc1C(OCc1ccc(C#N)cn1)c1ccc(C#N)c(-c2cccc3cccnc23)c1 (stereo not shown) [Example 247, 6-(((4-cyano-3-(8-quinolinyl)phenyl)(1-methyl-1H-imidazol-5-yl)methoxy)methyl)nicotinonitrile trihydrochloride]	95	–
CC(=O)Nc1ccc(CN(Cc2ccc(C#N)c(-c3cccc4ccccc34)c2)Cc2cncn2C)cc1 [Example 194, N-(4-(((4-cyano-3-(1-naphthyl)benzyl)((1-methyl-1H-imidazol-5-yl)methyl)amino)methyl)phenyl)acetamide dihydrochloride]	97	–
Cl.Cn1cncc1C(OCc1ccccc1)c1ccc(C#N)c(-c2c3ccccc3cc3ccccc23)c1 (stereo not shown) [Example 7]	–	% Inhibition at 10^−6M [1]: 92%
COC(=O)c1ccc(COC(c2ccc(C#N)c(-c3cccc4ccccc34)c2)c2cncn2C)cc1 (stereo not shown) [Example 64, methyl 4-(((4-cyano-3-(1-naphthyl)phenyl)(1-methyl-1H-imidazol-5-yl)methoxy)methyl)benzoate hydrochloride]	100	–
Cn1cncc1C(NCc1ccc(C(=O)O)cc1)c1ccc(C#N)c(-c2cccc3ccccc23)c1 (stereo not shown) [Example 39, lithium 4-((((4-cyano-3-(1-naphthyl)phenyl)(1-methyl-1H-imidazol-5-yl)methyl)amino)methyl)benzoate]	100	–
Cc1ccccc1-c1cc(C(OCc2ccccc2Cl)c2cncn2C)ccc1C#N (stereo not shown) [Example 132, 5-(((2-chlorobenzyl)oxy)(1-methyl-1H-imidazol-5-yl)methyl)-2′-methyl(1,1′-biphenyl)-2-carbonitrile hydrochloride]	94	–
Cc1ccccc1-c1cc(C(OCc2ccccc2[N+](=O)[O-])c2cncn2C)ccc1C#N.Cl (stereo not shown) [Example 142]	–	% Inhibition at 10^−6M: 94%
Cc1ccccc1-c1cc(C(O)(CCc2ccccc2)c2cncn2C)ccc1C#N (stereo not shown) [Example 110, 5-(1-hydroxy-1-(1-methyl-1H-imidazol-5-yl)-3-phenylpropyl)-2′-methyl(1,1′-biphenyl)-2-carbonitrile]	96	–
N#Cc1ccc(CN(Cc2ccc(C#N)c(-c3cccc4ccccc34)c2)Cc2cnc[nH]2)cc1 [Example 45, 4-(((4-cyanobenzyl)(1H-imidazol-5-ylmethyl)amino)methyl)-2-(1-naphthyl)benzonitrile dihydrochloride]	100	–
Cc1ccccc1-c1cc(C(OCc2csc(-c3ccc(Cl)cc3)n2)c2cncn2C)ccc1C#N (stereo not shown) [Example 162, 5-(((2-(4-chlorophenyl)-1,3-thiazol-4-yl)methoxy)(1-methyl-1H-imidazol-5-yl)methyl)-2′-methyl(1,1′-biphenyl)-2-carbonitrile hydrochloride]	94	–
COC(=O)c1ccc(COC(c2ccc(C#N)c(-c3ccccc3C(F)(F)F)c2)c2cncn2C)nc1 (stereo not shown) [Example 277, methyl 6-(((6-cyano-2′-(trifluoromethyl)(1,1′-biphenyl)-3-yl)(1-methyl-1H-imidazol-5-yl)methoxy)methyl)nicotinate dihydrochloride]	95	–
Cn1cncc1C(OCc1ccc(C#N)c(-c2cccc3ccccc23)c1)c1ccccc1 (stereo not shown) [Example 256, 4-(((1-methyl-1H-imidazol-5-yl)(phenyl)methoxy)methyl)-2-(1-naphthyl)benzonitrile hydrochloride]	94	–
Cc1ccccc1-c1cc(C(OCc2cc(F)cc3c2OCOC3)c2cncn2C)ccc1C#N (stereo not shown) [Example 156, 5-(((6-fluoro-4H-1,3-benzodioxin-8-yl)methoxy)(1-methyl-1H-imidazol-5-yl)methyl)-2′-methyl(1,1′-biphenyl)-2-carbonitrile hydrochloride]	92	–
Cn1cncc1C(NCc1ccc(C#N)cc1)c1ccc(C#N)c(-c2cccc3ccccc23)c1 (stereo not shown) [Example 13, 4-(((4-cyanobenzyl)amino)(1-methyl-1H-imidazol-5-yl)methyl)-2-(1-naphthyl)benzonitrile dihydrochloride]	100	–
